How the values were obtained:
Format in all cases: cell-based
HTT mRNA [1] = experiment: Splicing RT-qPCR assay (THP), Table 2A; details: Table 2A, THP; for AC50: HTT alternative junction (AJ) mRNA, read-out: HTT AJ (AC50, increase in alternative junction mRNA); for IC50: HTT canonical junction (CJ) mRNA, read-out: HTT CJ (IC50, decrease in canonical junction mRNA)
MYB mRNA [2] = experiment: Splicing RT-qPCR assay (THP), Table 2A; details: Table 2A, THP; for AC50: MYB alternative junction (AJ) mRNA, read-out: MYB AJ (AC50, increase in alternative junction mRNA); for IC50: MYB canonical junction (CJ) mRNA, read-out: MYB CJ (IC50, decrease in canonical junction mRNA)
HTT mRNA [3] = experiment: Gene panel canonical junction qPCR assay, decrease in CJ mRNA, Table 3; details: decrease in CJ mRNA levels, canonical junction qPCR, gene panel
How it was run: (§1)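 IC50 is the concentration giving 50% response in decrease of the canonical junction transcript, fitted with a 4-parameter logistic equation. Transcripts were quantified by RT-qPCR in A673 or K562 cells after 24 h exposure to compounds dosed up to 10 uM in 3-fold steps.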

MYB mRNA [4] = experiment: as above; details: decrease in CJ mRNA levels, canonical junction qPCR, gene panel
How it was run: as §1

[5] = system: SH-SY5Y (human neuroblastoma) cells; experiment: Cell viability, Cell Titer Glo 2.0 assay; details: read-out: Viability SHSY5Y.3 GI50
How it was run: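 Steps: serial DMSO dilution of compound, 1:100 dilution into medium, addition to cells (0.1% DMSO final). Incubate 72 h at 37 °C, 5% CO2. Assay with CellTiter-Glo 2.0 reagent.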

Row | SMILES | AC50 (HTT mRNA [1]) [nM] | IC50 (HTT mRNA [1]) [nM] | AC50 (MYB mRNA [2]) [nM] | IC50 (MYB mRNA [2]) [nM] | IC50 (HTT mRNA [3]) [nM] | IC50 (MYB mRNA [4]) [nM] | GI50 [5] [nM]
1 | COc1nc2c(N3C[C@H](C)N[C@@H](C)C3)ccc(C(=O)Nc3cc(F)c4nn(C)cc4c3)c2o1 [Compound 691, 4-[(3S,5S)-3,5-dimethylpiperazin-1-yl]-N-(7-fluoro-2-methyl-indazol-5-yl)-2-methoxy-1,3-benzoxazole-7-carboxamide] | > 10000 | > 10000 | 100 to 1000 | 100 to 1000 | > 10000 | 100 to 1000 | 1000 to 10000
2 | CCNC1CCN(c2cc(F)c(C(=O)Nc3cn4ccnc4nc3OC)c3nn(C)cc23)CC1 [Compound 692, 4-[4-(ethylamino)-1-piperidyl]-6-fluoro-N-(7-methoxyimidazo[1,2-a]pyrimidin-6-yl)-2-methyl-indazole-7-carboxamide] | 100 to 1000 | 1000 to 10000 | < 100 | < 100 | 1000 to 10000 | < 100 | 1000 to 10000
3 | Cc1cn2cc(NC(=O)c3ccc(N4CCC(NC5CC5)CC4)c4cn(C)nc34)nc2c(CNS(C)(=O)=O)n1 [Compound 694, 4-(4-(cyclopropylamino)piperidin-1-yl)-2-methyl-N-(6-methyl-8-(methylsulfonamidomethyl)imidazo[1,2-a]pyrazin-2-yl)-2H-indazole-7-carboxamide 2,2,2-trifluoroacetate] | > 10000 | > 10000 | > 10000 | > 10000 | > 10000 | > 10000 | > 10000
4 | COc1cc2c(N3CCC(NC4CC4)CC3)ccc(C(=O)Nc3cc(C)c4nc(C)cn4n3)n2n1 [Compound 695, 4-[4-(cyclopropylamino)-1-piperidyl]-N-(2,8-dimethylimidazo[1,2-b]pyridazin-6-yl)-2-methoxy-pyrazolo[1,5-a]pyridine-7-carboxamide] | 1000 to 10000 | 1000 to 10000 | 1000 to 10000 | 1000 to 10000 | 1000 to 10000 | 1000 to 10000 | 1000 to 10000
5 | COc1cc2nn(C)cc2cc1NC(=O)c1cc(C)c(N2CCC(NC3CC3)CC2)c2cn(C)nc12 [Compound 696] | > 10000 | > 10000 | > 10000 | > 10000 | > 10000 | > 10000 | 1000 to 10000
6 | COc1cc2c(N3C[C@H](C)N[C@@H](C)C3)ccc(C(=O)Nc3cc(F)c4nn(C)cc4c3)n2n1 [Compound 697, 4-[(3S,5S)-3,5-dimethylpiperazin-1-yl]-N-(7-fluoro-2-methyl-indazol-5-yl)-2-methoxy-pyrazolo[1,5-a]pyridine-7-carboxamide] | < 100 | 100 to 1000 | < 100 | < 100 | 100 to 1000 | < 100 | < 100
7 | COc1cc2c(N3C[C@H](C)N[C@@H](C)C3)ccc(C(=O)Nc3cc4cn(C)nc4cc3OC)n2n1 [Compound 698, 4-[(3S,5S)-3,5-dimethylpiperazin-1-yl]-2-methoxy-N-(6-methoxy-2-methyl-indazol-5-yl) pyrazolo[1,5-a]pyridine-7-carboxamide] | 1000 to 10000 | 1000 to 10000 | < 100 | < 100 | 1000 to 10000 | < 100 | 100 to 1000
8 | CNc1nc2c(C(=O)Nc3cc(F)c4nn(C)cc4c3)ccc(N3C[C@H](C)N[C@@H](C)C3)c2s1 [Compound 699, 7-[(3S,5S)-3,5-dimethylpiperazin-1-yl]-N-(7-fluoro-2-methyl-indazol-5-yl)-2-(methylamino)-1,3-benzothiazole-4-carboxamide] | 100 to 1000 | 100 to 1000 | < 100 | < 100 | 100 to 1000 | < 100 | < 100
9 | C[C@H]1CN(c2ccc(C(=O)Nc3cc(F)c4nn(C)cc4c3)c3nc(N)sc23)C[C@H](C)N1 [Compound 700, 2-amino-7-[(3S,5S)-3,5-dimethylpiperazin-1-yl]-N-(7-fluoro-2-methyl-indazol-5-yl)-1,3-benzothiazole-4-carboxamide] | 100 to 1000 | 100 to 1000 | < 100 | < 100 | 100 to 1000 | < 100 | 100 to 1000
10 | CCNC1CCN(c2cc(F)c(C(=O)Nc3cn4ccnc4cc3OC)c3nn(C)cc23)CC1 [Compound 701, 4-[4-(ethylamino)-1-piperidyl]-6-fluoro-N-(7-methoxyimidazo[1,2-a]pyridin-6-yl)-2-methyl-indazole-7-carboxamide] | > 10000 | > 10000 | 100 to 1000 | 100 to 1000 | > 10000 | 100 to 1000 | > 10000
11 | Cc1cn2cc(NC(=O)c3ccc(N4CCC(NC5CC5)CC4)c4cn(C)nc34)nc2c(CCS(C)(=O)=O)n1 [Compound 702] | > 10000 | > 10000 | 1000 to 10000 | 1000 to 10000 | > 10000 | 1000 to 10000 | > 10000
12 | Cc1cn2cc(NC(=O)c3ccc(N4CCC(NC5CC5)CC4)c4cn(C)nc34)nc2c(CN(C)S(C)(=O)=O)n1 [Compound 703, 4-(4-(cyclopropylamino)piperidin-1-yl)-2-methyl-N-(6-methyl-8-((N-methylmethylsulfonamido)methyl)imidazo[1,2-a]pyrazin-2-yl)-2H-indazole-7-carboxamide 2,2,2-trifluoroacetate] | > 10000 | > 10000 | > 10000 | > 10000 | > 10000 | > 10000 | > 10000
13 | CCNC1CCN(c2ccc(C(=O)Nc3cc(F)c4nn(C)cc4c3)c3nc(OC)sc23)CC1 [Compound 704, 7-(4-(ethylamino)piperidin-1-yl)-N-(7-fluoro-2-methyl-2H-indazol-5-yl)-2-methoxybenzo[d]thiazole-4-carboxamide 2,2,2-trifluoroacetate] | 100 to 1000 | 100 to 1000 | < 100 | < 100 | 100 to 1000 | < 100 | 100 to 1000
14 | COc1nc2c(C(=O)Nc3cc(F)c4nc(C)cn4c3)ccc(N3C[C@H](C)N[C@@H](C)C3)c2s1 [Compound 705, 7-[(3S,5S)-3,5-dimethylpiperazin-1-yl]-N-(8-fluoro-2-methyl-imidazo[1,2-a]pyridin-6-yl)-2-methoxy-1,3-benzothiazole-4-carboxamide] | 100 to 1000 | 100 to 1000 | < 100 | < 100 | 100 to 1000 | < 100 | < 100
15 | C[C@H]1CN(c2ccc(C(=O)Nc3cc(F)c4nn(C)cc4c3)c3nc(CNS(C)(=O)=O)sc23)C[C@H](C)N1 [Compound 706, 7-[(3S,5S)-3,5-dimethylpiperazin-1-yl]-N-(7-fluoro-2-methyl-indazol-5-yl)-2-(methanesulfonamidomethyl)-1,3-benzothiazole-4-carboxamide] | 100 to 1000 | 100 to 1000 | < 100 | 100 to 1000 | 100 to 1000 | 100 to 1000 | 100 to 1000
16 | C[C@H]1CN(c2ccc(C(=O)Nc3cc(F)c4nn(C)cc4c3)c3nc(CN)sc23)C[C@H](C)N1 [Compound 707, 2-(aminomethyl)-7-[(3S,5S)-3,5-dimethylpiperazin-1-yl]-N-(7-fluoro-2-methyl-indazol-5-yl)-1,3-benzothiazole-4-carboxamide] | 100 to 1000 | 1000 to 10000 | < 100 | < 100 | 1000 to 10000 | < 100 | 100 to 1000
17 | Cn1cc2cc(NC(=O)c3cc(F)c(N4CCC(NC5CC5)CC4)c4cn(C)nc34)cc(F)c2n1 [Compound 708, 4-[4-(cyclopropylamino)-1-piperidyl]-5-fluoro-N-(7-fluoro-2-methyl-indazol-5-yl)-2-methyl-indazole-7-carboxamide] | > 10000 | > 10000 | 1000 to 10000 | > 10000 | > 10000 | > 10000 | 1000 to 10000
18 | COc1c(NC(=O)c2cc(F)c(N3CCC(NC4CC4)CC3)c3cn(C)nc23)cn2cc(C)nc2c1F [Compound 709] | 1000 to 10000 | 1000 to 10000 | 100 to 1000 | 100 to 1000 | 1000 to 10000 | 100 to 1000 | 1000 to 10000
19 | COc1nc2c(C(=O)Nc3cc4c(C)nc(C)cn4n3)ccc(N3C[C@H](C)N[C@@H](C)C3)c2s1 [Compound 710, 7-[(3S,5S)-3,5-dimethylpiperazin-1-yl]-N-(4,6-dimethylpyrazolo[1,5-a]pyrazin-2-yl)-2-methoxy-1,3-benzothiazole-4-carboxamide] | 1000 to 10000 | 1000 to 10000 | 1000 to 10000 | 1000 to 10000 | 1000 to 10000 | 1000 to 10000 | 1000 to 10000

Reference: US20260285853A1, “COMPOUNDS AND METHODS FOR MODULATING SPLICING” (REMIX THERAPEUTICS INC., priority 2023, published 2026)
